{"source": "patent US20070172957A1", "about": "“Methods of identifying anti-inflammatory macrolides” (TAISHO PHARMACEUTICAL CO., LTD., priority 2004, published 2007)", "test_system": "genes predictive for the anti-inflammatory macrolide effect", "assay": "Genes statistically predictive of Clari response: differentially expressed with Clari but not the inactive macrolides MAA or Josa (Appendix E)", "type": "cell-based", "from_the_text": "In the case of the above-mentioned (i) related to arachidonic acid biosynthesis, specifically, methods of the embodiment involve assaying whether a test macrolide alters biosynthesis of arachidonic acid, alters the expression or activities of enzymes involved in the biosynthesis or activation of arachidonic acid (e.g., arachidonic acid CoA synthetase, delta-6 desaturase, fatty acid elongase, and delta-5 desaturase, AA-related genes in Tables 2 and 3), or alters the expression of genes identified as predictive for the anti-inflammatory macrolide effect (Appendix E). Assays in which arachidonic acid or gene expression or enzymatic activity is detected can be carried out after contacting a cell with a test macrolide. Any cell line that secretes prostaglandin or produces arachidonic acid can be used. Epithelial and macrophages lines (e.g., A549 or THP-1) are suitable for this purpose; other cell lines can be identified by carrying out assays such as those described in the specific Examples, below. Alternatively, screening assays can be carried out after adding a test macrolide to an in vitro cell system (e.g., a cellular extract or liver microsome preparation) or an in vitro enzyme assay system."}
{"smiles": "CO[C@@H]1[C@@H](O[C@@H]2O[C@H](C)[C@@H](O[C@H]3C[C@@](C)(O)[C@@H](OC(=O)CC(C)C)[C@H](C)O3)[C@H](N(C)C)[C@H]2O)[C@@H](CC=O)C[C@@H](C)[C@@H](O)/C=C/C=C/C[C@@H](C)OC(=O)C[C@H]1OC(C)=O", "note": "[josamycin]", "values": [{"measurement": "group mean, gene DDOST", "setting": "SpotID 49757, MAA and Josa vs. Clari", "value": 0.96}, {"measurement": "group mean, gene BCL2L2", "setting": "SpotID 49761, MAA and Josa vs. Clari", "value": 0.85}, {"measurement": "group mean, gene AD022", "setting": "SpotID 49767, MAA and Josa vs. Clari", "value": 0.96}, {"measurement": "mean group, AD022", "setting": "SpotID 49767, pooled group mean", "value": 0.96}, {"measurement": "group mean, gene P4HB", "setting": "SpotID 49781, MAA and Josa vs. Clari", "value": 0.98}, {"measurement": "group mean, gene CYC1", "setting": "SpotID 49787, MAA and Josa vs. Clari", "value": 1.09}, {"measurement": "mean group, CYC1", "setting": "SpotID 49787, pooled group mean", "value": 1.09}, {"measurement": "group mean, gene BCL2L2", "setting": "SpotID 49794, MAA and Josa vs. Clari", "value": 0.86}, {"measurement": "mean group, AD022", "setting": "SpotID 49800, pooled group mean", "value": 0.97}, {"measurement": "group mean, gene CDKN2C", "setting": "SpotID 49815, MAA and Josa vs. Clari", "value": 1.06}, {"measurement": "group mean, gene CYC1", "setting": "SpotID 49820, MAA and Josa vs. Clari", "value": 1.05}, {"measurement": "group mean, gene LAMP2", "setting": "SpotID 49882, MAA and Josa vs. Clari", "value": 0.99}, {"measurement": "group mean, gene ATP2B4", "setting": "SpotID 49915, MAA and Josa vs. Clari", "value": 1.23}, {"measurement": "mean group, ATP2B4", "setting": "SpotID 49915, pooled group mean", "value": 1.23}, {"measurement": "group mean, gene DHCR24", "setting": "SpotID 49922, MAA and Josa vs. Clari", "value": 1.00}, {"measurement": "group mean, gene KIAA0169", "setting": "SpotID 49930, MAA and Josa vs. Clari", "value": 1.03}, {"measurement": "mean group, RFC1", "setting": "SpotID 49947, pooled group mean", "value": 1.05}, {"measurement": "group mean, gene CCNE2", "setting": "SpotID 49967, MAA and Josa vs. Clari", "value": 1.02}, {"measurement": "group mean, gene BMP6", "setting": "SpotID 49981, MAA and Josa vs. Clari", "value": 0.94}, {"measurement": "group mean, gene VTN", "setting": "SpotID 49989, MAA and Josa vs. Clari", "value": 1.19}, {"measurement": "group mean, gene SRC", "setting": "SpotID 49990, MAA and Josa vs. Clari", "value": 0.99}, {"measurement": "group mean, gene NFYC", "setting": "SpotID 50011, MAA and Josa vs. Clari", "value": 1.10}, {"measurement": "mean group, HIF1A", "setting": "SpotID 50022, pooled group mean", "value": 1.07}, {"measurement": "group mean, gene GNB2L1", "setting": "SpotID 50049, MAA and Josa vs. Clari", "value": 1.32}, {"measurement": "mean group, NDUFA2", "setting": "SpotID 50050, pooled group mean", "value": 0.90}, {"measurement": "group mean, gene MBTPS1", "setting": "SpotID 50067, MAA and Josa vs. Clari", "value": 0.95}, {"measurement": "group mean, gene SCOP", "setting": "SpotID 50079, MAA and Josa vs. Clari", "value": 0.97}, {"measurement": "mean group, SCOP", "setting": "SpotID 50079, pooled group mean", "value": 0.97}, {"measurement": "group mean, gene IDI1", "setting": "SpotID 50084, MAA and Josa vs. Clari", "value": 0.90}, {"measurement": "group mean, SpotID 50085 (gene symbol not given)", "setting": "SpotID 50085, MAA and Josa vs. Clari", "value": 1.18}, {"measurement": "group mean, gene CNOT3", "setting": "SpotID 50099, MAA and Josa vs. Clari", "value": 0.95}, {"measurement": "mean group, CNOT3", "setting": "SpotID 50099, pooled group mean", "value": 0.95}, {"measurement": "group mean, gene IRF5", "setting": "SpotID 50103, MAA and Josa vs. Clari", "value": 0.87}, {"measurement": "group mean, gene RRBP1", "setting": "SpotID 50135, MAA and Josa vs. Clari", "value": 0.95}, {"measurement": "group mean, SpotID 50216 (gene symbol not given)", "setting": "SpotID 50216, MAA and Josa vs. Clari", "value": 0.95}, {"measurement": "group mean, gene FLJ13868", "setting": "SpotID 50222, MAA and Josa vs. Clari", "value": 0.93}, {"measurement": "group mean, gene HK2", "setting": "SpotID 50224, MAA and Josa vs. Clari", "value": 0.95}, {"measurement": "mean group, IL10RB", "setting": "SpotID 50267, pooled group mean", "value": 0.98}, {"measurement": "group mean, gene UQCR", "setting": "SpotID 50284, MAA and Josa vs. Clari", "value": 0.83}, {"measurement": "group mean, gene TM7SF2", "setting": "SpotID 50294, MAA and Josa vs. Clari", "value": 1.01}, {"measurement": "group mean, gene CDR2", "setting": "SpotID 50302, MAA and Josa vs. Clari", "value": 0.89}, {"measurement": "group mean, gene MAX", "setting": "SpotID 50307, MAA and Josa vs. Clari", "value": 0.96}, {"measurement": "group mean, gene BMP6", "setting": "SpotID 50319, MAA and Josa vs. Clari", "value": 0.98}, {"measurement": "group mean, gene DAD1", "setting": "SpotID 50332, MAA and Josa vs. Clari", "value": 1.02}, {"measurement": "group mean, gene FGFR2", "setting": "SpotID 50337, MAA and Josa vs. Clari", "value": 0.93}, {"measurement": "group mean, gene IKKE", "setting": "SpotID 50342, MAA and Josa vs. Clari", "value": 0.94}, {"measurement": "mean group, IKKE", "setting": "SpotID 50342, pooled group mean", "value": 0.94}, {"measurement": "group mean, gene LOC51295", "setting": "SpotID 50349, MAA and Josa vs. Clari", "value": 1.01}, {"measurement": "mean group, LOC51295", "setting": "SpotID 50349, pooled group mean", "value": 1.01}, {"measurement": "mean group, CFL1", "setting": "SpotID 50351, pooled group mean", "value": 1.16}, {"measurement": "group mean, gene TFAM", "setting": "SpotID 50386, MAA and Josa vs. Clari", "value": 1.05}, {"measurement": "group mean, gene DGCR6L", "setting": "SpotID 50399, MAA and Josa vs. Clari", "value": 1.02}, {"measurement": "group mean, gene CHERP", "setting": "SpotID 50405, MAA and Josa vs. Clari", "value": 1.00}, {"measurement": "group mean, gene AGPAT1", "setting": "SpotID 50412, MAA and Josa vs. Clari", "value": 0.99}, {"measurement": "mean group, GOCAP1", "setting": "SpotID 50421, pooled group mean", "value": 1.01}, {"measurement": "group mean, gene SIGIRR", "setting": "SpotID 50452, MAA and Josa vs. Clari", "value": 0.96}, {"measurement": "group mean, gene MMP15", "setting": "SpotID 50464, MAA and Josa vs. Clari", "value": 0.87}, {"measurement": "group mean, gene CEBPA", "setting": "SpotID 50474, MAA and Josa vs. Clari", "value": 0.97}, {"measurement": "mean group, MGP", "setting": "SpotID 50511, pooled group mean", "value": 0.83}, {"measurement": "group mean, gene ARHC", "setting": "SpotID 50513, MAA and Josa vs. Clari", "value": 0.91}, {"measurement": "mean group, ARHC", "setting": "SpotID 50513, pooled group mean", "value": 0.91}, {"measurement": "group mean, gene PRKCBP1", "setting": "SpotID 50532, MAA and Josa vs. Clari", "value": 1.07}, {"measurement": "group mean, gene PTPRT", "setting": "SpotID 50550, MAA and Josa vs. Clari", "value": 0.92}, {"measurement": "mean group, BN51T", "setting": "SpotID 50584, pooled group mean", "value": 0.97}, {"measurement": "mean group, CKS2", "setting": "SpotID 50590, pooled group mean", "value": 0.74}, {"measurement": "mean group, SpotID 50591", "setting": "SpotID 50591 (gene symbol not given), pooled group mean", "value": 1.01}, {"measurement": "group mean, SpotID 50591 (gene symbol not given)", "setting": "SpotID 50591, MAA and Josa vs. Clari", "value": 1.01}, {"measurement": "mean group, SRP19", "setting": "SpotID 50601, pooled group mean", "value": 0.95}, {"measurement": "group mean, gene PDIR", "setting": "SpotID 50639, MAA and Josa vs. Clari", "value": 0.91}, {"measurement": "group mean, gene PROS1", "setting": "SpotID 50643, MAA and Josa vs. Clari", "value": 0.93}, {"measurement": "mean group, BET1", "setting": "SpotID 50645, pooled group mean", "value": 0.84}, {"measurement": "group mean, gene COPB2", "setting": "SpotID 50654, MAA and Josa vs. Clari", "value": 0.99}, {"measurement": "group mean, gene MAX", "setting": "SpotID 50659, MAA and Josa vs. Clari", "value": 0.95}, {"measurement": "group mean, gene GNB5", "setting": "SpotID 50689, MAA and Josa vs. Clari", "value": 1.00}, {"measurement": "group mean, gene PRKDC", "setting": "SpotID 50736, MAA and Josa vs. Clari", "value": 1.07}, {"measurement": "mean group, PRKDC", "setting": "SpotID 50736, pooled group mean", "value": 1.07}, {"measurement": "group mean, gene AD022", "setting": "SpotID 50738, MAA and Josa vs. Clari", "value": 0.94}, {"measurement": "mean group, AD022", "setting": "SpotID 50738, pooled group mean", "value": 0.94}]}
